Assay results: patent US10933147B2, “Imaging of metastatic or recurrent cancer” (Blue Earth Diagnostics Limited, priority 2015, dated 2021)

Legend:
[1] = PET time activity curves in reference regions; format: in vivo, human; settings: regions in marrow (ilium), muscle (gluteus), and bladder; remained constant throughout the imaging period
Method: (§1) Regions in marrow (ilium), muscle (gluteus), and bladder reached a plateau at 4.5 minutes that remained constant throughout the imaging period.
(§2) The time required for [^18F]-FACBC to accumulate in tumour cells in steps a) and c) of the aspects described above may be about 5 minutes or less after [^18F]-FACBC is administered. Optionally, the time taken for [^18F]-FACBC to accumulate is 3 to 5 minutes, for example 4 minutes. This therefore allows image acquisition to start 3 to 5 minutes after administration, for example 4 minutes after [^18F]-FACBC administration. […] Regions in marrow (ilium), muscle (gluteus), and bladder reached a plateau at 4.5 minutes that remained constant throughout the imaging period.

[2] = test system: known prostate carcinoma recurrence; test: PET time activity curves in prostate carcinoma recurrence; format: in vivo, human
Method: as §1, §2

[3] = human, in vivo
Method: FIGS. 1a and 1b show accumulation of FACBC in the Virchow's node when the FACBC is injected into the left arm.
In some embodiments, the right arm may be preferred as stasis in the axillary vein upon injection in the left arm may be misinterpreted as a metastatic lymph node called Virchow's node, which is located in the left supraclavicular fossa (the area above the left clavicle, or collar bone). For example, FIGS. 1a and 1b show accumulation of FACBC in the Virchow's node when the FACBC is injected into the left arm.

## N[C@]1(C(=O)O)C[C@@H](F)C1 [fluciclovine, anti-1-amino-3-^18F-fluorocyclobutane-1-carboxylic acid]
[1]
  time at which plateau is reached: 4.5 min
[2]; known prostate carcinoma recurrence, after the maximum
  plateau of uptake lasts to: 30 min
[2]; known prostate carcinoma recurrence, after the plateau, out to 60 minutes
  gradual clearance: 9 %/min
[2]; rapid uptake in known prostate carcinoma recurrence
  time of maximum uptake: 4.5 min
[3]
  standardized uptake value (SUV): > 200
